Results taken from paper doi:10.1101/2024.12.04.24318244v2 (medrxiv, 2024).
Structures can show the parent of a compound that is named as a salt. Where two headings read alike, the source gives them in different places.

Legend:
Assay in all cases: radioligand competition binding
5-HT1A = target: T1, 5-HT1A (Homo sapiens, UniProt P08908)
T1 sequence (P08908 1-422): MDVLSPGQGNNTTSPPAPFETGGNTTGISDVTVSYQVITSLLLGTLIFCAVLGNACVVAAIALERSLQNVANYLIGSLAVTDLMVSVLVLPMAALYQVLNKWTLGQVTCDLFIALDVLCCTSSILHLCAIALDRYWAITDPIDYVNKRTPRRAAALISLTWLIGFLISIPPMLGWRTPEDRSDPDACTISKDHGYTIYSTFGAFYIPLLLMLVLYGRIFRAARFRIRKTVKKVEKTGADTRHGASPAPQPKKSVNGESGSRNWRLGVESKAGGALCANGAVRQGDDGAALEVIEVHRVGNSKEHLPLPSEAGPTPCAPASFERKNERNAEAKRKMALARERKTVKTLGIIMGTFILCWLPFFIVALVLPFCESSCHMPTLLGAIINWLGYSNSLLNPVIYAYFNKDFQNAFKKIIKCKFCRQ

5-HT2B = 5-HT2B (Homo sapiens, UniProt P41595)
S2R = target: S2R

5-HT2B, sequence (P41595 whole entry): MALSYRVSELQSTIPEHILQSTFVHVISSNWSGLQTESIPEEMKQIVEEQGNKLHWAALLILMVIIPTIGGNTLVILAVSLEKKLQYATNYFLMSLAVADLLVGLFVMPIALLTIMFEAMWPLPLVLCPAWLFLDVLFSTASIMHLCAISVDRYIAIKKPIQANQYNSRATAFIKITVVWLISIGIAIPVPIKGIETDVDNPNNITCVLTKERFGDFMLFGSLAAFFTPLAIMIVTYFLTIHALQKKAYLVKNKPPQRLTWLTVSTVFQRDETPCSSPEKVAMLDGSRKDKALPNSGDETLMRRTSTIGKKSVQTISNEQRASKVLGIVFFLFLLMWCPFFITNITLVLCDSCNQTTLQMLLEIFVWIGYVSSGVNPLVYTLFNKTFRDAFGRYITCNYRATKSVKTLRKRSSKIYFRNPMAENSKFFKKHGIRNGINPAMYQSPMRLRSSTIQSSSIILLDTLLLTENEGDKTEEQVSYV

Ki (5-HT1A; text b38 prints a wider range than the table)	Ki (5-HT2B)	Ki (S2R)	Ki (5-HT1A)	Ki (S2R; text b35 prints a range that differs from the table)	SMILES
5 to 11 nM	> 5000 nM	> 2000 nM	–	–	CC(=O)Nc1cccc(N2CCN(CCCCNS(=O)(=O)CC3CCCCC3)CC2)c1 [NP-18-2, N-{3-[4-(4-cyclohexylmethanesulfonylaminobutyl)-piperazin-1-yl]phenyl} acetamide hydrochloride]
–	3.4 nM	42 nM	–	–	N#Cc1cc(CN2CCC(Nc3ncnc4sc(Cl)cc34)CC2)ccc1F [NP-18-3, 5-((4-(6-chlorothieno[2,3-d]pyrimidin-4-ylamino)piperidine-1-yl)methyl)-2-fluorobenzonitrile monofumarate]
–	> 5000 nM	–	> 5000 nM	36.1 nM	CC(C)n1c(=O)c(C(=O)NCCCN2CCCCC2)c(O)c2ccsc21 [PRX-3140, 6,7-Dihydro-4-hydroxy-7-isopropyl-6-oxo-N-(3-(piperidin-1-yl)propyl)thieno[2,3-b]pyridine-5-carboxamide potassium salt]
